Counter-ions that a name gives are not always drawn.
Assays:
TNFα = assay: Measurement of LPS Induced-TNFα in THP-1 Cells; format: cell-based, human; conditions: Homo sapiens, THP-1; read-out: TNFalpha IC50
Method: The lipid peroxidation assay method of Ohkawa, H.; Ohishi, N.; Yaki, K. Anal. Biochem. 1979, 95, 351 was used to evaluate […]. […] […] Cells were collected and spun at 1500 g for 10 minutes. Supernatant was collected and analyzed for TNFα.
Mean Percent Inhibition of TNF-alpha by compounds of the present invention is set forth in Table B. TNF-alpha inhibition data is set forth in Table B-1. OT-551 was used in both native form and in the form of nanoparticles. […] Other nitrogenous heterocyclic species of the invention are expected to show similar improvement in efficacy when disposed in nanoparticulate form.

[1] = test system: Doxorubicin resistant SaOS2 cells; assay: Cancer cell viability (MTT) in the presence or absence of doxorubicin; format: cell-based, human; conditions: compound 50 ug/mL, 3 days

| Compound | melting point | IC50 (TNFα) [µM] | Mean OD (×10^−3), MTT viability ([1]; Dox. 10^−6 M (+)) | Mean OD (×10^−3), MTT viability ([1]; absence of Dox. (−)) |
| --- | --- | --- | --- | --- |
| CC1(C)CC(Oc2nsnc2-c2ccccc2)CC(C)(C)N1O.Cl [Compound 44, 1-hydroxy-4-(4-phenyl-1,2,5-thiadiazol-3-yloxy)-2,2,6,6-tetramethylpiperidine hydrochloride] | 220.8 °C (dec.) | ≥ 100 | 13.25 ×10^−3 | 23.00 ×10^−3 |
| CC1(C)C=C(CO)CC(C)(C)N1O.Cl [Compound 25, 1-hydroxy-1,2,3,6-tetrahydro-2,2,6,6-tetramethylpyridin-4-yl)methanol hydrogen chloride] |  | 30.9 |  |  |
| CC1(C)CC(O)C(C)(C)N1O (centres unmarked) (as salt: salt) [Compound 7, 2,2,5,5-Tetramethyl-pyrrolidine-1,3-diol] | 155.5 °C (dec.) |  |  |  |
| Cc1c(C)c2c(c(C)c1O)CCC(C)(C(=O)NC1CC(C)(C)N(O)C(C)(C)C1)O2.Cl (centres unmarked) | 174.9 °C (dec.) |  |  |  |
| CC1(C)CC(NC(=O)C2CC2)CC(C)(C)N1O.Cl [Compound 31, N-(1-hydroxy-2,2,6,6-tetramethylpiperidin-4-yl)cyclopropanecarboxamide hydrogen chloride] |  | 38.2 | 322.25 ×10^−3 | 1175.25 ×10^−3 |
| COc1cc2c(cc1OC)CN(c1nsnc1OC1CC(C)(C)N(O)C(C)(C)C1)CC2.Cl | 166.9 °C (dec.) |  |  |  |
| CC1(C)CC(NS(C)(=O)=O)CC(C)(C)N1O (as salt: salt) [Compound 10, 1-hydroxy-4-methanesulfonamido-2,2,6,6-tetramethylpiperidine] | 178.3 °C (dec.) |  |  |  |
| CC1(C)c2ccc(N3CCOCC3)cc2C(C)(C)N1O [Compound 66, 2-hydroxy-1,1,3,3-tetramethyl-5-morpholinoisoindoline hydrochloride] |  | ≥ 100 |  |  |
| CC1(C)CC(Oc2nsnc2N2CCN(C(=O)c3ccco3)CC2)CC(C)(C)N1O.Cl | 198.1 °C (dec.) |  |  |  |
| CC1(C)CC(Oc2nsnc2C#N)CC(C)(C)N1O (as salt: hydrochloride) [Compound 45] | 179.2 °C (dec.) |  |  |  |
| CC1(C)C=C(c2ccc(F)cc2)CC(C)(C)N1O [Compound 62, hydrochloride] |  | ≥ 100 | 40.25 ×10^−3 | 184.75 ×10^−3 |
| CC1(C)CC(Oc2nsnc2C(=O)O)CC(C)(C)N1O.Cl | 209.1 °C (dec.) |  |  |  |
| CC1(C)CC(Oc2nc3ccccc3s2)CC(C)(C)N1O.Cl | 160 °C (dec.) |  |  |  |
| CC1(C)CC(=O)C(C)(C)N1O.Cl [Compound 37, 1-hydroxy-2,2,5,5-tetramethylpyrrolidin-3-one hydrogen chloride] |  | ≥ 100 | 366.25 ×10^−3 | 1329.75 ×10^−3 |
| CC1(C)C=C(CC2CNCCO2)C(C)(C)N1O.Cl.Cl (centres unmarked) [Compound 36, ((1-hydroxy-2,5-dihydro-2,2,5,5-tetramethyl-1H-pyrrol-3-yl)methyl)morpholine bis-hydrogen chloride] |  | 4 | 297.00 ×10^−3 | 1110.75 ×10^−3 |
| CC1(C)CC(NC(=O)CCCCC2CCSS2)CC(C)(C)N1O.Cl (centres unmarked) [Compound 49, 5-(1,2-dithialan-3-yl)-N-(1-hydroxy-2,2,6,6-tetramethylpiperidin-4-yl)pentanamide hydrochloride] | 164.7 °C (dec.) |  | 195.00 ×10^−3 | 1330.25 ×10^−3 |
| CC1(C)CC(Oc2nsnc2N2CCOCC2)C(C)(C)N1O.Cl (centres unmarked) [Compound 32, 4-(4-(1-hydroxy-2,2,5,5-tetramethylpyrrolidin-3-yloxy)-1,2,5-thiadiazol-3-yl)morpholine hydrogen chloride] |  | ≥ 100 | 231.50 ×10^−3 | 985.67 ×10^−3 |
| CC1(C)COC(=O)C(C)(C)N1O.Cl [Compound 39, N-Hydroxyl-3,3,5,5-tetramethylmorpholin-2-one hydrochloride] | 145 °C (dec.) | ≥ 100 | 311.00 ×10^−3 | 1201.00 ×10^−3 |
| CC1(C)c2ccc(Br)cc2C(C)(C)N1O.Cl | 214.1 °C |  |  |  |
| CC(C)(C)OC(=O)c1nsnc1OC1CC(C)(C)N(O)C(C)(C)C1.Cl | 197 °C (dec.) |  |  |  |

| Compound | melting point | IC50 (TNFα) [µM] | Mean OD (×10^−3), MTT viability ([1]; Dox. 10^−6 M (+)) | Mean OD (×10^−3), MTT viability ([1]; absence of Dox. (−)) |
| --- | --- | --- | --- | --- |
| CC1(C)C=C(CO)C(C)(C)N1O (as salt: chloride) [Compound 8, 2,5-dihydro-2,2,5,5-tetramethyl-1-hydroxyl-1H-pyrrol-3-yl)methanol hydrogen chloride] | 141.9 °C (dec.) |  |  |  |
| COc1cc(COC2CC(C)(C)N(O)C(C)(C)C2)cc(OC)c1OC.Cl [Compound 48, 1-Hydroxyl-4-(3,4,5-trimethoxybenzyloxy)-2,2,6,6-tetramethylpiperidine hydrochloride] |  |  | 50.67 ×10^−3 | 1118.00 ×10^−3 |
| CC1(C)CC(O)(c2ccc(F)cc2)CC(C)(C)N1O.Cl [Compound 57, 4-(4-Fluorophenyl)-1-hydroxyl-2,2,6,6-tetramethylpiperidin-4-ol hydrochloride] | 220 °C (dec.) | ≥ 100 | 426.25 ×10^−3 | 1078.50 ×10^−3 |
| COc1cc(CNC2CC(C)(C)N(O)C(C)(C)C2)cc(OC)c1OC.Cl.Cl [Compound 58, N-(3,4,5-trimethoxybenzyl)-1-hydroxy-2,2,6,6-tetramethylpiperidin-4-amine dihydrochloride] | 181 °C |  | 291.50 ×10^−3 | 1207.00 ×10^−3 |
| CN1CCN(c2nsnc2OC2CC(C)(C)N(O)C(C)(C)C2)CC1.Cl.Cl [Compound 52, dihydrochloride] |  | 3 |  |  |
| CC1(C)CC(=CC(=O)N2CCN(c3ccccc3)CC2)CC(C)(C)N1O [Compound 56, hydrochloride] |  | 12 | 308.75 ×10^−3 | 1153.00 ×10^−3 |
| CC1(C)CC(NC(=O)CCN2CCOCC2)CC(C)(C)N1O.Cl [Compound 26, N-(1-hydroxy-2,2,6,6-tetramethylpiperidin-4-yl)-3-morpholinopropanamide hydrogen chloride] |  | ≥ 100 | 261.50 ×10^−3 | 1056.33 ×10^−3 |
| CC1(C)CC(c2nn[nH]n2)CC(C)(C)N1O.Cl [Compound 30, 1-hydroxy-2,2,6,6-tetramethyl-4-(2H-tetrazol-5-yl)piperidine hydrogen chloride] |  | ≥ 100 | 310.00 ×10^−3 | 1301.25 ×10^−3 |
| CC(C)c1nsnc1OCC1=CC(C)(C)N(O)C1(C)C.Cl [Compound 51] | 155.7 °C |  | 71.00 ×10^−3 | 1208.25 ×10^−3 |
| CC1(C)CC(CO)CC(C)(C)N1O.Cl [Compound 34, (1-hydroxy-2,2,6,6-tetramethylpiperidin-4-yl)methanol hydrogen chloride] |  | 2.4 | 302.75 ×10^−3 | 1168.25 ×10^−3 |
| CC1(C)CC(CO)C(C)(C)N1O.Cl (centres unmarked) [Compound 33, 1-hydroxy-2,2,5,5-tetramethylpyrrolidin-3-yl)methanol hydrogen chloride] |  | 55.7 |  |  |
| COc1cc(C2=CC(C)(C)N(O)C(C)(C)C2)cc(OC)c1OC.Cl [Compound 50, 1-Hydroxy-2,3,6-trihydro-4-(3,4,5-trimethoxyphenyl)-2,2,6,6-tetramethylpiperidine hydrochloride] |  |  | 54.50 ×10^−3 | 1226.33 ×10^−3 |
| CC1(C)CC(Oc2nsnc2OC2CC(C)(C)N(O)C(C)(C)C2)CC(C)(C)N1O (as salt: chloride) [Compound 14, 1-hydroxyl-4-(4-(2,2,6,6-tetramethylpiperidin-1-hydroxyl-4-yloxy)-1,2,5-thiadiazol-3-yloxy)-2,2,6,6-tetramethylpiperidine bis-hydrogen chloride] | 216.2 °C (dec.) |  |  |  |
| CC1(C)CC(Oc2nsnc2N2CCN(c3ccccc3)CC2)CC(C)(C)N1O.Cl.Cl [Compound 53, 4-(4-phenylpiperazin-1-yl)-3-[(2,2,6,6-tetramethyl-1-hydroxypiperidinyl)-4-oxy]-1,2,5-thiadiazole hydrochloride] |  |  | 170.00 ×10^−3 | 1333.75 ×10^−3 |
| CC1(C)C=C(COc2ccccc2N2CCOCC2)C(C)(C)N1O.Cl | 155.7 °C (dec.) |  |  |  |
| CC1(C)CC(Nc2nc3ccccc3s2)CC(C)(C)N1O.Cl | 183 °C (dec.) |  |  |  |
| COc1ccc2nc(NC3CC(C)(C)N(O)C(C)(C)C3)sc2c1.Cl | 220 °C (dec.) |  |  |  |
| CC1(C)CC(Oc2nsnc2N2CCSCC2)CC(C)(C)N1O.Cl [Compound 55, 4-(4-(1-hydroxy-2,2,6,6-tetramethylpiperidin-4-yloxy)-1,2,5-thiadiazol-3-yl)thiomorpholine hydrochloride] | 218 °C (dec.) |  | 285.75 ×10^−3 | 1037.25 ×10^−3 |
| CC1(C)C(CO)=C(c2ccc(F)cc2)C(C)(C)N1O.Cl [Compound 59, (4-(4-fluorophenyl)-1-hydroxy-2,5-dihydro-2,2,5,5-tetramethyl-1H-pyrrol-3-yl)methanol hydrochloride] |  |  | 352.00 ×10^−3 | 1105.00 ×10^−3 |
| CN1CCN(c2nsnc2OC2CC(C)(C)N(O)C(C)(C)C2)CC1.Cl.Cl [Compound 52] |  |  | 195.00 ×10^−3 | 1186.33 ×10^−3 |

From patent US20080200405A1, “Drug Resistance Reversal In Neoplastic Disease” (priority 2007, published 2008)
